Data set [1] deals with rat kidney. Put plainly: Rat nephrotoxicity model: serum markers of GFR (BUN, serum creatinine). The data set is classed as in vivo, Sprague-Dawley rats. To be noted: dose-response for BUN elevation.
The subject of data set [2] is rat kidney. Description: Rat nephrotoxicity model: kidney histopathology (H&E). The data set is classed as in vivo, Sprague-Dawley rats. To be noted: rats, 14 d once-daily. The method, then:
This rat nephrotoxicity study design used 14 days of once-daily dosing of aminoglycosides in adult Sprague-Dawley rats. Rats were allowed full access to food and water, and aminoglycosides were dosed subcutaneously at 1 mL/kg dosing volume, formulated in water. Nephrotoxicity was assessed by monitoring changes in serum markers of glomerular filtration rate (GFR), namely blood urea nitrogen (BUN) and serum creatinine. Microscopic examination of kidney slices after fixation and hematoxylin and eosin (H&E) staining was also utilized, scoring for tubular dilation, cellular casts, interstitial inflammation, and regenerative changes to the tubules.

The test system of the next data set is E. coli. Put plainly: MIC, further Brooklyn patient isolates: E. coli. To be noted: E. coli (n = 3071). Format: cell-based. Also noted: unit not given beside the values. Here is the method: Minimum inhibitory concentrations (MIC) were determined by reference Clinical and Laboratory Standards Institute (CLSI) broth microdilution methods per M7-A7 [2006]. Briefly, serial two-fold dilutions of Compound 1 and comparator AGs (together, “the test compounds”) were prepared at 2× concentration in appropriate diluent. The dilutions were mixed in 96-well assay plates with bacterial inoculum. Bacteria were suspended in sterile saline and added to each assay plate to obtain a final concentration of 5.5×10^5 CFU/mL. The plates were incubated at 35° C. for 20 hours in ambient air. […] After incubation, assay plates were read using a microtiter plate reader at 600 nm.
Further studies analyzed a greater number of unique patient isolates obtained from Brooklyn, N.Y. hospitals (including those species described above). These species included Acinetobacter, E. coli, Enterobacter, Klebsiella, and Pseudomonas.

The structures appear in SMILES notation.

Take `CN[C@@H]1[C@@H](O[C@H]2O[C@H](CO)[C@@H](N)[C@H](O)[C@H]2O)OC2C[C@@H](N)[C@@H](O[C@H]3[C@H](O)[C@@H](O)[C@H](N)C[C@@H]3N)OC2[C@@H]1O` (stereo partly drawn) [Apramycin, apramycin]: the “apparent relative nephrotoxicity (ranking)” value in the data set with rat kidney [1] is on record as “Neomycin≈Gentamicin>Tobramycin>Apramycin≈Paromomycin>Amikacin”. For the same compound, the “Histopathology score (0 to 5 Scale): Casts” value is reported as 0 +/− 0 with rat kidney [2] (3 mg/kg), 0 +/− 0 with rat kidney [2] (10 mg/kg), 0 +/− 0 in the data set with rat kidney [2] (30 mg/kg) and 1.4 +/− 0.5 in the data set with rat kidney [2] (100 mg/kg). Further, the “Histopathology score (0 to 5 Scale): Dilation” value in the data set with rat kidney [2] (3 mg/kg) was 0 +/− 0; in the data set with rat kidney [2] (10 mg/kg) it was 0 +/− 0; with rat kidney [2] (30 mg/kg), 0 +/− 0; in the data set on rat kidney [2] (100 mg/kg), 0.6 +/− 0.5. Besides, the “Histopathology score (0 to 5 Scale): Inflammation” value is given as 0.4 +/− 0.5 in the data set with rat kidney [2] (3 mg/kg), 0.4 +/− 0.5 in the data set on rat kidney [2] (10 mg/kg), 0.6 +/− 0.5 with rat kidney [2] (30 mg/kg) and 2.4 +/− 0.5 with rat kidney [2] (100 mg/kg). Further, the “Histopathology score (0 to 5 Scale): Regeneration” value in the data set on rat kidney [2] (3 mg/kg) is 0 +/− 0; in the data set on rat kidney [2] (10 mg/kg), 0.6 +/− 1.3; in the data set with rat kidney [2] (30 mg/kg), 0.6 +/− 0.5; with rat kidney [2] (100 mg/kg), 2.4 +/− 0.5.

On to `CC(C)(O/N=C(\C(=O)N[C@@H]1C(=O)N2C(C(=O)[O-])=C(C[n+]3ccccc3)CS[C@H]12)c1csc(N)n1)C(=O)O` [CAZ, ceftazidime], for which the MIC50 entry against E. coli is given as “≦0.25”.

These data come from patent publication US20120208781A1, “AMINOGLYCOSIDE DOSING REGIMENS” (Achaogen, Inc., priority 2009, published 2012).
